Experimental findings from ChEMBL document CHEMBL1139926, “Identification of 6-substituted 4-arylsulfonyl-1,4-diazepane-2,5-diones as a novel scaffold for human chymase inhibitors” (Bioorg Med Chem Lett, 2007) are described below.

Molecules are shown by their SMILES. pIC50: −log10 of the molar value.

The target of one assay is T1, Chymase (Homo sapiens, UniProt P23946).
T1 sequence (P23946 whole entry): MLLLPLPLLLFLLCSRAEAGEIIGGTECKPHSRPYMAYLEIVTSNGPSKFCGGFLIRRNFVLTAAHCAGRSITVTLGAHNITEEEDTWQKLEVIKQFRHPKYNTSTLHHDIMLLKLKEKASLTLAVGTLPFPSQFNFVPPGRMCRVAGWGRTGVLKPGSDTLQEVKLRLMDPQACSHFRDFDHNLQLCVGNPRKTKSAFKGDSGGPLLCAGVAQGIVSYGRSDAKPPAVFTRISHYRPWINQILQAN
Kind of assay: Inhibition of human recombinant chymase.

A short description of assay [1]: Inhibition of bovine pancreatic trypsin. Also noted: species or system Bos taurus.
The target of the next assay is T2, Neutrophil elastase (Homo sapiens, UniProt P08246).
T2 sequence (P08246 whole entry): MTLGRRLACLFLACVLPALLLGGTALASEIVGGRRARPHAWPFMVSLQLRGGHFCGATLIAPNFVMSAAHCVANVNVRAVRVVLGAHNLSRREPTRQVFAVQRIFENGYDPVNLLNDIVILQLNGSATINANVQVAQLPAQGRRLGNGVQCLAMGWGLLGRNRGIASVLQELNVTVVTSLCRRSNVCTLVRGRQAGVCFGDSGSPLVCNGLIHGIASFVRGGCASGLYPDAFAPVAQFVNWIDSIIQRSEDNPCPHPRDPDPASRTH
Kind of assay: Inhibition of human neutrophil elastase.

A further assay addresses T3, Cathepsin G (Homo sapiens, UniProt P08311).
T3 sequence (P08311 whole entry): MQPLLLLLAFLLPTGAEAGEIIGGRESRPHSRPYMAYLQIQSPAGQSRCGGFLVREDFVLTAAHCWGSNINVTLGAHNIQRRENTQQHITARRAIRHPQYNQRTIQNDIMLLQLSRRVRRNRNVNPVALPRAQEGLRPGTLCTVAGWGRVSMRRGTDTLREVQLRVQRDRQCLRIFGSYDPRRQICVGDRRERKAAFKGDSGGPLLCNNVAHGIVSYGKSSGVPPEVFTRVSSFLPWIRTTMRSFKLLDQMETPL
Kind of assay: Inhibition of human neutrophil cathepsin G.

A short description of assay [2]: Inhibition of bovine pancreatic alpha chymotrypsin. Also noted: species or system Bos taurus.

One may read the pIC50 as the IC50 on a negative log10 scale, so that one unit is a factor of ten.

Regarding `O=C1CN(S(=O)(=O)c2ccc(Cl)cc2)C(=O)C(Cc2ccncc2)CN1` (racemic), the pIC50 on Chymase is less than 5.00.
On the same count and under the same terms, the same measure for `O=C1CN(S(=O)(=O)c2ccc(Cl)cc2)C(=O)C(Cc2ccc3ccccc3c2)CN1` (racemic): less than 5.00; for `O=C1CN(S(=O)(=O)c2ccc(Cl)cc2)C(=O)C(CC2CCCCC2)CN1` (racemic): less than 5.00; for `O=C1CN(S(=O)(=O)c2ccc(Cl)cc2)C(=O)C(Cc2cccnc2)CN1` (racemic): less than 5.00.
Same read-out and setting: the same measure for `CC(C)C[C@H](NC(=O)[C@@H](NC(=O)N[C@@H](Cc1ccccc1)C(=O)O)C1CCN=C(N)N1)C(=O)N[C@H](C=O)Cc1ccccc1` (some centres undefined) [CHYMOSTATIN]: 7.37.
Consider `COc1ccc(Cl)cc1CC1CNC(=O)CN(S(=O)(=O)c2ccc(Cl)cc2)C1=O` (racemic), for which the pIC50 in assay [1] is less than 5.00; at Neutrophil elastase, less than 5.00; on Cathepsin G, 5.54; in assay [2], 6.52.
